Test results reported in patent publication US10125101B2, “Indanylaminopyridylcyclopropanecarboxylic acids, pharmaceutical compositions and uses thereof” (Boehringer Ingelheim International GmbH, priority 2016, dated 2018).
pEC50, pIC50: −log10 of the molar value. ≈ marks a conversion by molar mass, not a printed value. Like-named read-outs stand apart in the source and are kept apart here.

Experiments:
Aqueous solubility = format: physicochemical; conditions: buffer pH 2.2, 24 h shaking, 2.5% DMSO; for solubility at 24 h: aqueous buffer, kinetic from dmso stock
Description: Starting from a 10 mM DMSO stock solution aliquots are diluted with acetonitrile/water (1/1) or buffer, respectively. After 24 h of shaking, the solutions are filtrated and analyzed by LC-UV. The amount dissolved in buffer is compared to the amount in the acetonitrile solution.

[1] = target: cytochrome P450 2C8-isoenzyme (Homo sapiens (Human), UniProt P10632); experiment: Inhibition of CYP-2C8 (amodiaquine deethylation, human liver microsomes); format: in vitro ADME; conditions: amodiaquine 1 μM, 37° C.
Chain of cytochrome P450 2C8-isoenzyme (P10632 whole entry): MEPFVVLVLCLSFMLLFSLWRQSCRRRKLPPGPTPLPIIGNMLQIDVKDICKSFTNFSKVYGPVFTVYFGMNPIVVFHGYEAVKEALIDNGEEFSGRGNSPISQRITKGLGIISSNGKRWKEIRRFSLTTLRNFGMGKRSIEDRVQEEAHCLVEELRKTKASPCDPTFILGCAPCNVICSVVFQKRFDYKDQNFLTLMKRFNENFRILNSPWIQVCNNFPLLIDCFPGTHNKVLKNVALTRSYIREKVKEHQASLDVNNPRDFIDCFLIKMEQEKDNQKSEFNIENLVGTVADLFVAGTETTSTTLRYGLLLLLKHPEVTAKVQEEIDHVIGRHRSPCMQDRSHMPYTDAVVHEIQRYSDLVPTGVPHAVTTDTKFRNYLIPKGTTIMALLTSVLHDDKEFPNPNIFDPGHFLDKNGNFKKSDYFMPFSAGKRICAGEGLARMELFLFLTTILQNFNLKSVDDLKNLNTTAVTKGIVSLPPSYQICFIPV
Description: (§1) All assays are carried out on a robotic system in 96 well plates. The final incubation volume contains TRIS buffer (0.1 M), MgCl2 (5 mM), human liver microsomes (0.05 mg/mL), amodiaquine (1 μM) and the test compound at five different concentrations or no compound (high control) in duplicate (e.g. highest concentration 10-50 μM with subsequent serial 1:4 dilutions). Following a short preincubation period, reactions are started with the cofactor (NADPH, 1 mM) and stopped by cooling the incubation down to 8° C. and subsequently by addition of one volume of acetonitrile. An internal standard solution—the stable isotope d5-desethylamodiaquine—is added after quenching of incubations. Peak area analyte (=metabolite formed) and internal standard is determined by LC-MS/MS. The resulting peak area ratio analyte to internal standard in these incubations is compared to a control activity containing no test compound. Within each of the assay runs, the IC50 of a positive control inhibitor (Montelukast) is determined.

[2] = target: cytochrome P450 2C9-isoenzyme (Homo sapiens (Human), UniProt P11712); experiment: Inhibition of CYP-2C9 (diclofenac hydroxylation, human liver microsomes); format: in vitro ADME; conditions: diclofenac 10 μM, 37° C.
Chain of cytochrome P450 2C9-isoenzyme (P11712 whole entry): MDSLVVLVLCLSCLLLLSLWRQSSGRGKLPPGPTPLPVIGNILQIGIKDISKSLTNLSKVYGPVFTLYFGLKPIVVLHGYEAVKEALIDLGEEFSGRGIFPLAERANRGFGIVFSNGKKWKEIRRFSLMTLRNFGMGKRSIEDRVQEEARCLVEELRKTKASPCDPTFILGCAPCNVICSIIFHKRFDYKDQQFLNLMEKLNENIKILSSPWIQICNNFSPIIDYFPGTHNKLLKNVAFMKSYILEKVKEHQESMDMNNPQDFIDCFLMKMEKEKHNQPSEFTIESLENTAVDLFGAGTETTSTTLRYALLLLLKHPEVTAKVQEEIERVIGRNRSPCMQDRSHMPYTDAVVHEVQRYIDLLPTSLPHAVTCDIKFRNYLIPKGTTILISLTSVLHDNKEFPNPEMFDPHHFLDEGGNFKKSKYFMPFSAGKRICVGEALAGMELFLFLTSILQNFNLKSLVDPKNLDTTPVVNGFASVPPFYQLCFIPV
Description: as §1, with “(0.1” for “(0.05”, “diclofenac (10” for “amodiaquine (1”, “(e.g.,” for “(e.g.”, “^13C6-hydroxydiclofenac—is” for “d5-desethylamodiaquine—is”, “(sulfaphenazole)” for “(Montelukast)”

human GPR40 receptor = human GPR40 receptor (Homo sapiens (Human), UniProt O14842); experiment: IP1 accumulation measurements using the IPOne assay system; format: cell-based
Chain of human GPR40 receptor (O14842 whole entry): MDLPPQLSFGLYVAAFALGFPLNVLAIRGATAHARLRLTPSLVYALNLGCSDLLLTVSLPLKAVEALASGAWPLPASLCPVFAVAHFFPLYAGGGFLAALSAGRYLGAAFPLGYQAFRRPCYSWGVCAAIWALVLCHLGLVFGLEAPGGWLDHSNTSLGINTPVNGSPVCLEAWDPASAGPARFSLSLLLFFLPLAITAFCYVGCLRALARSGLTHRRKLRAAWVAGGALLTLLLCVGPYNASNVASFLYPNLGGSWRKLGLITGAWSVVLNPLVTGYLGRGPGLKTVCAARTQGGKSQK
Description: IP1 accumulation measurements using the IPOne assay system—1321N1 cells stably expressing human GPR40 receptor (Euroscreen, Belgium) are seeded 24 h before the assay in white 384-well plates in culture medium containing 10% FCS, 1% Na-Pyruvate and 400 μg/mL G418. IP1 is assayed according to the manufacturer's description (Cisbio Bioassays, France). In brief, the assay is started by substitution of the culture medium by stimulation buffer (Hepes 10 mM, CaCl2 1 mM, MgCl2 0.5 mM, KCl 4.2 mM, NaCl 146 mM, glucose 5.5 mM and LiCl 50 mM, pH 7.4). Cells are stimulated for 1 h at 37° C., 5% CO2 by addition of the compounds that are diluted in stimulation buffer containing LiCl. Assays are stopped by adding HTRF-conjugates (IP1-d2 and Anti-IP1 cryptate Tb) and lysis buffer, provided by the manufacturer. After an incubation time of 1 h at room temperature plates are measured using an EnVision™, Perkin Elmer. The obtained fluorescence ratios at 665/615 […] are then used to calculate the pEC50 values using Assay Explorer 3.3 Software (Accelrys, Inc.) by interpolation using an IP1 reference curve and subsequent sigmoidal curve fitting allowing for a variable hill slope.

[3] = 1321N1 cells stably expressing human GPR40, 1 h stimulation, read-out: EC50
[4] = head-to-head compilation, given as IC50, values equal the EC50 of Table 2, read-out: GPR40: IC50

| Solubility at pH value 2.2 (Aqueous solubility) [μg/mL] | pIC50 [1] | pIC50 [2] | pEC50 (human GPR40 receptor; [3]) | solubility at 24 h (Aqueous solubility) [µg/mL] | SMILES | pEC50 (human GPR40 receptor; [4]) |
| --- | --- | --- | --- | --- | --- | --- |
| >130 | 4.68 | < 4.30 | 8.30 | – | Cc1cc(-c2ccn(C)c(=O)n2)cc(C)c1-c1ccc(F)c2c1CC[C@H]2Nc1ccc([C@H]2C[C@@H]2C(=O)O)nc1 [Example 18] | – |
| 123 | 4.59 | < 4.30 | 8.15 | – | Cc1cc(OCC2CCOC2)cc(C)c1-c1ccc(F)c2c1CC[C@H]2Nc1ccc([C@H]2C[C@@H]2C(=O)O)nc1 (some centres unmarked) [Example 32] | – |
| 97 | 4.37 | < 4.30 | 6.18 | – | Cc1cc(C(=O)O)cc(C)c1-c1ccc(F)c2c1CC[C@H]2Nc1ccc([C@H]2C[C@@H]2C(=O)O)nc1 [Example 23] | – |
| 106 | 4.51 | < 4.30 | 7.96 | – | Cc1cc(OC2CCOCC2)cc(C)c1-c1ccc(F)c2c1CC[C@H]2Nc1ccc([C@H]2C[C@@H]2C(=O)O)nc1 [Example 35] | – |
| 95 | 5.15 | 4.59 | 7.92 | – | Cc1cc(-c2ccnn2C)cc(C)c1-c1ccc(F)c2c1CC[C@H]2Nc1ccc([C@H]2C[C@@H]2C(=O)O)nc1 [Example 19] | – |
| 90 | 4.85 | 4.80 | 8.22 | – | Cc1cc(OCC2CCOCC2)cc(C)c1-c1ccc(F)c2c1CC[C@H]2Nc1ccc([C@H]2C[C@@H]2C(=O)O)nc1 [Example 26] | – |
| 120 | 4.49 | < 4.30 | 8.10 | – | Cc1cc(OCC2(C)COC2)cc(C)c1-c1ccc(F)c2c1CC[C@H]2Nc1ccc([C@H]2C[C@@H]2C(=O)O)nc1 [Example 15] | – |
| – | 4.70 | < 4.30 | 8.52 | – | Cc1cc(-c2nnn(C)n2)cc(C)c1-c1ccc(F)c2c1CC[C@H]2Nc1ccc([C@H]2C[C@@H]2C(=O)O)nc1 [Example 30] | – |
| 87 | 4.82 | 4.51 | 7.57 | – | O=C(O)[C@H]1C[C@@H]1c1ccc(N[C@@H]2CCc3c(-c4ccccc4C(F)(F)F)ccc(F)c32)cn1 [Example 31] | – |
| 110 | 4.31 | 4.40 | 6.46 | – | N#CC1(c2ccccc2-c2ccc(F)c3c2CC[C@H]3Nc2ccc([C@H]3C[C@@H]3C(=O)O)nc2)CC1 (mixture of isomers) [Example 25] | – |
| – | 4.70 | < 4.30 | 7.62 | < 1 | COc1cnc(-c2ccc(-c3cccc4c3CC[C@H]4Nc3ccc([C@H]4C[C@@H]4C(=O)O)nc3)cc2)cn1 [Example 9, (1S,2S)-2-(5-{(R)-4-[4-(5-Methoxy-pyrazin-2-yl)-phenyl]-indan-1-ylamino}-pyridin-2-yl)-cyclopropanecarboxylic acid] | – |
| 112 | < 4.30 | < 4.30 | 6.83 | – | CNC(=O)c1cc(C)c(-c2ccc(F)c3c2CC[C@H]3Nc2ccc([C@H]3C[C@@H]3C(=O)O)nc2)c(C)c1 [Example 27] | – |
| – | 4.92 | 4.77 | – | – | Cc1cc(OCCCS(C)(=O)=O)cc(C)c1-c1ccc(F)c2c1CC[C@H]2Oc1ccc([C@H]2C[C@@H]2C(=O)O)nc1 [Example 11 in WO 2013/178575, reference compound] | 8.10 |
| 117 | 4.85 | < 4.30 | 8.40 | – | Cc1cc(-c2ccn(C)c(=O)c2)cc(C)c1-c1ccc(F)c2c1CC[C@H]2Nc1ccc([C@H]2C[C@@H]2C(=O)O)nc1 [Example 29] | – |
| – | 4.54 | < 4.30 | 8.52 | 68 (≈ 141 µM) | Cc1cc(-c2nnn(C)n2)cc(C)c1-c1cccc2c1CC[C@H]2Nc1ccc([C@H]2C[C@@H]2C(=O)O)nc1 [Example 6, (1S,2S)-2-(5-{(R)-4-[2,6-Dimethyl-4-(2-methyl-2H-tetrazol-5-yl)-phenyl]-indan-1-ylamino}-pyridin-2-yl)-cyclopropanecarboxylic acid] | – |
| – | 5.30 | 5.15 | – | – | Cc1cccc(C)c1-c1ccc(F)c2c1CC[C@H]2Oc1ccc(C2CC2C(=O)O)cc1 (some centres unmarked) [Example 33 in WO 2013/178575, reference compound] | – |
| – | – | – | 6.84 | – | Cc1nnc(-c2ccc(-c3cccc4c3CC[C@H]4Nc3ccc([C@H]4C[C@@H]4C(=O)O)nc3)cc2)o1 [Example 10, (1S,2S)-2-(5-{(R)-4-[4-(5-Methyl-[1,3,4]oxadiazol-2-yl)-phenyl]-indan-1-ylamino}-pyridin-2-yl)-cyclopropanecarboxylic acid] | – |
| – | 5.05 | 5.00 | – | < 1 | Cc1c(C#N)cccc1-c1ccc(F)c2c1CC[C@H]2Oc1ccc([C@H]2C[C@@H]2C(=O)O)cc1 [Example 54 in WO 2013/178575, reference compound] | – |
| – | 5.00 | 4.51 | – | < 1 | Cc1cc(C(=O)NCC(C)(C)O)cc(C)c1-c1ccc(F)c2c1CC[C@H]2Oc1ccc([C@H]2C[C@@H]2C(=O)O)cc1 [Example 15 in WO 2013/178575, reference compound] | – |

| SMILES | Solubility at pH value 2.2 (Aqueous solubility) [μg/mL] | pIC50 [1] | pIC50 [2] | pEC50 (human GPR40 receptor; [3]) | solubility at 24 h (Aqueous solubility) [µg/mL] | pEC50 (human GPR40 receptor; [4]) |
| --- | --- | --- | --- | --- | --- | --- |
| O=C(O)[C@H]1C[C@@H]1c1ccc(N[C@@H]2CCc3c(-c4c(Cl)cccc4Cl)ccc(F)c32)cn1 [Example 24] | >122 | 4.96 | 4.66 | 8.40 | – | – |
| Cc1cc(OCCC(C)(C)O)cc(C)c1-c1ccc(F)c2c1CC[C@H]2Nc1ccc(C2C[C@@H]2C(=O)O)nc1 (stereo partly drawn) [Example 1, trans-2-(5-{(R)-7-Fluoro-4-[4-(3-hydroxy-3-methyl-butoxy)-2,6-dimethyl-phenyl]-indan-1-ylamino}-pyridin-2-yl)-cyclopropanecarboxylic acid] | – | – | – | 7.96 | – | – |
| Cc1cc(OCCC(C)(C)O)cc(C)c1-c1ccc(F)c2c1CC[C@H]2Nc1ccc([C@@H]2C[C@H]2C(=O)O)nc1 [Example 3, (1R,2R)-2-(5-{(R)-7-Fluoro-4-[4-(3-hydroxy-3-methyl-butoxy)-2,6-dimethyl-phenyl]-indan-1-ylamino}-pyridin-2-yl)-cyclopropanecarboxylic acid] | – | – | – | 6.97 | – | – |
| Cc1cc(C(N)=O)cc(C)c1-c1ccc(F)c2c1CC[C@H]2Nc1ccc([C@H]2C[C@@H]2C(=O)O)nc1 [Example 11] | >120 | < 4.30 | < 4.30 | 7.52 | – | – |
| Cc1cc(OCCC(C)(C)O)cc(C)c1-c1ccc(F)c2c1CC[C@H]2Nc1ccc([C@H]2C[C@@H]2C(=O)O)nc1 [Example 2, (1S,2S)-2-(5-{(R)-7-Fluoro-4-[4-(3-hydroxy-3-methyl-butoxy)-2,6-dimethyl-phenyl]-indan-1-ylamino}-pyridin-2-yl)-cyclopropanecarboxylic acid] | – | 4.70 | < 4.30 | 8.40 | 100 (≈ 193 µM) | 8.40 |
| Cc1cc(OCC(C)(C)C#N)cc(C)c1-c1ccc(F)c2c1CC[C@H]2Nc1ccc([C@H]2C[C@@H]2C(=O)O)nc1 [Example 17] | 64 | 4.72 | 4.44 | 8.00 | – | – |
